Assay: logP determination by HPLC on a reversed-phase column (C 18), EEC Directive 79/831 Annex V.A8
Format: physicochemical
Conditions: HPLC reversed-phase C 18, 40° C., 0.1% aqueous formic acid and acetonitrile, gradient 10% to 90% acetonitrile
Description: In the table 1, the logP values were determined in accordance with EEC Directive 79/831 Annex V.A8 by HPLC (High Performance Liquid Chromatography) on a reversed-phase column (C 18), using the method described below: Temperature: 40° C.; Mobile phases: 0.1% aqueous formic acid and acetonitrile; linear gradient from 10% acetonitrile to 90% acetonitrile. Calibration was carried out using unbranched alkan-2-ones (comprising 3 to 16 carbon atoms) with known logP values (determination of the logP values by the retention times using linear interpolation between two successive alkanones).

logP	SMILES
3.78	CC(COc1ccc(Cl)cc1Cl)N(C(=O)c1cn(C)nc1I)C1CC1 (centres unmarked) [Example 19]
4.72	Cn1cc(C(=O)N(CCOc2c(Cl)cc(Cl)cc2Cl)C2CCCC2)c(C(F)F)n1 [Example 24]
